Test system: Sinapis arvensis
Experiment: Field trial post-emergence in maize: SINAR
Assay type: in vivo
Conditions: 13-14 DAA; # = 1; g a.c./ha: PYR 450, TOP 12.4, PYR + TOP 450 + 12.4
Protocol: Herbicidal activity of herbicide compositions according to the first aspect of the present invention with regard to different types of unwanted vegetation was determined during trials performed on test fields (field trials). Individual compositions comprising pyridate and individual compositions comprising a defined 4-HPPD inhibitor are compared with a herbicide composition according to the invention comprising both pyridate and a defined 4-HPPD inhibitor. The expected activity of the combination of the active compounds pyridate and a defined 4-HPPD inhibitor is calculated according to above mentioned calculation method by Colby, in order to evaluate a synergistic effect between pyridate and a defined 4-HPPD inhibitor.
Herbicidal activity was determined by applying herbicide compositions on emerged unwanted vegetation on fields where maize was cultivated. Pyridate and a defined 4-HPPD inhibitor were applied as a tank mixture by mixing these active compounds prior to use in a spray tank. The corresponding mixture was in the form of a spray liquor. […] At a specified number of days after application (DAA), the degree of damage to the unwanted vegetation is rated in % of plants of unwanted vegetation that were killed, which was assessed by visually controlling the plants.

CCCCCCCCSC(=O)Oc1cc(Cl)nnc1-c1ccccc1 [PYR, (6-chloro-3-phenylpyridazin-4-yl) octylsulfanylformate]
herbicidal effect (h.e.): 57%
